Consider 8 compounds from article PMC3933693, “Novel Inhibitors of Mitochondrial sn-Glycerol 3-phosphate Dehydrogenase” (PLoS ONE, 2014).

For assay [1], the system named is ubiquinone-binding site of complex I (site IQ). The assay can be described thus: Site-specific H2O2 production from site IQ in skeletal muscle mitochondria.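 Note: H2O2 from superoxide detected by Amplex UltraRed fluorescence with added superoxide dismutase and horseradish peroxidase, endpoint read 30–40 min after substrate addition.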 The format is biochemical, rat. As to conditions: 80 μM; 5 mM succinate.
In the next assay the target is T1, mGPDH (Rattus norvegicus, UniProt P35571).
T1 construct: Activity of mGPDH in frozen-thawed skeletal muscle mitochondria was measured; from tissue; host or cells: skeletal muscle mitochondria
T1 sequence (P35571 43-727): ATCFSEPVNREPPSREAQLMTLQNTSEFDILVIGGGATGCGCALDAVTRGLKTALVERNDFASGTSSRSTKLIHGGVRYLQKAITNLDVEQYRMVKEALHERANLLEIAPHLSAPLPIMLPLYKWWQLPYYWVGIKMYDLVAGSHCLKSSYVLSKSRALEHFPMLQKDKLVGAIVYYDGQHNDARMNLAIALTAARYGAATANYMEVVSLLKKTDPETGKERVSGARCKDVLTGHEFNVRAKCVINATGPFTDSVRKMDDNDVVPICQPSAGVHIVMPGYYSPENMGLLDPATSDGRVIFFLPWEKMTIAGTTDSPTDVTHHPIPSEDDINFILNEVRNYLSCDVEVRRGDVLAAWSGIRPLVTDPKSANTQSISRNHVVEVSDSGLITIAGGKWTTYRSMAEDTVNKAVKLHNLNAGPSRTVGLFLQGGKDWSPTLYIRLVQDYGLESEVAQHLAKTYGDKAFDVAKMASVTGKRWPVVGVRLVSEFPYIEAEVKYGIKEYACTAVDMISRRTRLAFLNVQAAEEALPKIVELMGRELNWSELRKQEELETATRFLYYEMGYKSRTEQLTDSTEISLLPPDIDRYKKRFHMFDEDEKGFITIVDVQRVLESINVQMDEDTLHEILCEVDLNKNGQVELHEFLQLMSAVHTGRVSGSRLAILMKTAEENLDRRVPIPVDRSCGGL
The assay can be described thus: Superoxide/H2O2 production by mGPDH in isolated skeletal muscle mitochondria (Amplex UltraRed). The format is biochemical. The note with it: for inhibition at 80 µM: read-out: mGPDH H2O2 production (% change at 80 μM).

Assay [2] deals with skeletal muscle mitochondria. In words: Mitochondrial membrane potential (ΔΨm, TMRM) powered by glycerol phosphate. The format is biochemical, rat. As to conditions: 80 μM; 16.7 mM glycerol phosphate, 4 µM rotenone, nigericin.
Protocol: Mitochondrial membrane potential (ΔΨm) was estimated fluorimetrically as described previously [33] on the Varian fluorimeter, except the potentiometric dye TMRM was used in quench-mode in place of safranine O [34]. […] The effect of putative small-molecule inhibitors was normalized as the % change in fluorescence between vehicle treatment and complete depolarization by the uncoupler carbonyl cyanide-4-(trifluoromethoxy)phenylhydrazone (FCCP, 2 µM) added at the end of each run. When indicated, the K^+/H^+ exchanger nigericin (80 ng ⋅ ml^−1) was added to collapse the pH gradient across the mitochondrial inner membrane (ΔpH) and maximize ΔΨm.
All assays were performed with stirring at 37°C.
Additionally, four microplate assays for ΔΨm were run in parallel to the H2O2 assays. These assays were as described under “Measurement of mitochondrial H2O2 production and membrane potential” except that each substrate condition was assayed in a separate microplate. […] Plates were incubated in the dark at room temperature for 30–40 min (H2O2) or 10–15 min (ΔΨm) after the addition of substrate, and endpoint fluorescence was measured on the Victor plate reader. […] Endpoints for the ΔΨm assays were determined in pilot experiments as the times for TMRM accumulation to reach a steady state. At room temperature, this was typically ∼ 5 min and remained stable for at least 30 min. Endpoint fluorescence values were normalized as described in the previous section with wells containing FCCP serving as positive controls for the ΔΨm assays.
Assay [3] has as its system skeletal muscle mitochondria. The assay can be described thus: Mitochondrial membrane potential (ΔΨm, TMRM) powered by glutamate plus malate. The format is biochemical, rat. As to conditions: 80 μM, 5 mM glutamate, 5 mM malate; for ΔΨm with Glu + Mal + Nig (% change at 80 μM): with nigericin; for ΔΨm with Glu + Mal (% change at 80 μM): without nigericin.

For the compound `O=C(O)CCC(=O)Nc1ccc(-c2nc3ccccc3s2)cc1` [iGP-3], the “IQ H2O2 production with 5 mM Suc (% change at 80 μM)” value in assay [1] is recorded as -69%. Besides, the IC50 at mGPDH (Fig. 4 structure/activity microplate assay, 0.08–80 µM, estimated, means of two replicates, read-out: mGPDH H2O2 production IC50) was 15 µM. Moreover, the inhibition at 80 µM on mGPDH amounted to 50%. Besides, the “ΔΨm with GP + Nig (% change at 80 μM)” value in assay [2] is -26%. Also, in assay [3], the “ΔΨm with Glu + Mal + Nig (% change at 80 μM)” value was 20% and the “ΔΨm with Glu + Mal (% change at 80 μM)” value was determined as 148%.
Consider `COC(=O)CCC(=O)Nc1ccc(C)cc1` [iGP-20], for which, in assay [1], the “IQ H2O2 production with 5 mM Suc (% change at 80 μM)” value is reported as -8%. Moreover, the inhibition at 80 µM on mGPDH is 20%. Also, the “ΔΨm with GP + Nig (% change at 80 μM)” value in assay [2] came to 0%. Besides, in assay [3], the “ΔΨm with Glu + Mal + Nig (% change at 80 μM)” value was -1% and the “ΔΨm with Glu + Mal (% change at 80 μM)” value is reported as -3%.
For the compound `CC(=O)Nc1ccc(-c2nc3ccccc3[nH]2)cc1` [iGP-12], the “IQ H2O2 production with 5 mM Suc (% change at 80 μM)” value in assay [1] is given as -21%. Moreover, the inhibition at 80 µM on mGPDH was found to be 28%. In addition, the “ΔΨm with GP + Nig (% change at 80 μM)” value in assay [2] is recorded as 2%. Also, in assay [3], the “ΔΨm with Glu + Mal + Nig (% change at 80 μM)” value is given as 2% and the “ΔΨm with Glu + Mal (% change at 80 μM)” value is 10%.
On to `O=C(O)CCC(=O)Nc1ccc(Cl)cc1` [iGP-18], for which the “IQ H2O2 production with 5 mM Suc (% change at 80 μM)” value in assay [1] is given as 6%. The inhibition at 80 µM on mGPDH is -2%. For the same compound, the “ΔΨm with GP + Nig (% change at 80 μM)” value in assay [2] is listed as -1%. Further, in assay [3], the “ΔΨm with Glu + Mal + Nig (% change at 80 μM)” value is recorded as -3% and the “ΔΨm with Glu + Mal (% change at 80 μM)” value is -9%.
With `O=C(Nc1ccc(-c2nc3ccccc3[nH]2)cc1)C1CC1` [iGP-16], the “IQ H2O2 production with 5 mM Suc (% change at 80 μM)” value in assay [1] is given as -24%. Also, the inhibition at 80 µM at mGPDH was 7%. Moreover, the “ΔΨm with GP + Nig (% change at 80 μM)” value in assay [2] is on record as 2%. Also, in assay [3], the “ΔΨm with Glu + Mal + Nig (% change at 80 μM)” value was determined as 1% and the “ΔΨm with Glu + Mal (% change at 80 μM)” value is 4%.
Taken in the same sequence, the figures for `C=C(C)C(=O)Nc1ccc(-c2nc3ccccc3[nH]2)cc1` [iGP-11] were -54%, 5%, 1%, -1% and 54%.
Taken in the same sequence, the figures for `CCCC(=O)Nc1ccc(-c2nc3cc4ccccc4cc3[nH]2)cc1` [iGP-9] were -1%, 2%, 5%, 5% and 26%.
As to `Cc1ccc(NC(=O)CCC(=O)O)cc1` [iGP-19], in assay [1], the “IQ H2O2 production with 5 mM Suc (% change at 80 μM)” value is reported as 7%. The inhibition at 80 µM on mGPDH came to 1%. In assay [2], the “ΔΨm with GP + Nig (% change at 80 μM)” value is recorded as -2%. Further, in assay [3], the “ΔΨm with Glu + Mal + Nig (% change at 80 μM)” value is listed as -2% and the “ΔΨm with Glu + Mal (% change at 80 μM)” value was -8%.
